# Calls of active or inactive are those of the source.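 The calls were made as follows: active = IC50 below 10 µM against protein phosphatase 1 in the dose response test; inactive = IC50 of 10 µM or more.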
# Target: Serine/threonine-protein phosphatase PP1-alpha catalytic subunit (Homo sapiens) (UniProt P62136)
# Assay: dose-dependent PP1alpha phosphatase inhibition – biochemical, fluorescence, OMFP substrate, set 4, dose response (AID 652216)
# Conditions: purified PP1alpha, OMFP dephosphorylation fluorescence
# Sequence of Serine/threonine-protein phosphatase PP1-alpha catalytic subunit (Homo sapiens) (P62136 whole entry, looked up): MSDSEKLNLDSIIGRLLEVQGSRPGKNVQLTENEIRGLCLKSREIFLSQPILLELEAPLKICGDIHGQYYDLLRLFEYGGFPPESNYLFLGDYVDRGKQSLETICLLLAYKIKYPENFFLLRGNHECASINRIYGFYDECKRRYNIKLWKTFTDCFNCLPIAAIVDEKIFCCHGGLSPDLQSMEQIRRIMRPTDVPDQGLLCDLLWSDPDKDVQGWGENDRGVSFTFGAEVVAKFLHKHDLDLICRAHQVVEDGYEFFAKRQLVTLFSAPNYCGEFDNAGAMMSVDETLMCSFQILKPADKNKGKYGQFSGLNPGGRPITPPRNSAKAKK
row,Compound,IC50
1,CN1CCN([C@@H](c2ccc(C(F)(F)F)cn2)c2ccc3cccnc3c2O)CC1,8.39 µM
2,CN1CCN([C@H](c2ccc(C(F)(F)F)cn2)c2ccc3cccnc3c2O)CC1,8.84 µM
3,CN1CCN(C(c2ccc(C(F)(F)F)cn2)c2ccc3cccnc3c2O)CC1 (centres undefined),4.51 µM
4,CN1CCN(C(c2cccc(F)n2)c2ccc3cccnc3c2O)CC1 (centres undefined),inactive

# Reference: PubChem BioAssay AID652216 (The Scripps Research Institute Molecular Screening Center, 2013)
